Data as given in US9464064B2, “HCV helicase inhibitors and methods of use thereof” (University of Kansas, priority 2011, dated 2016).
Residues, ends and D or L forms follow the SMILES beside them. *: point of attachment. Cbz = O=C(OCc1ccccc1)*; CH2Cl = ClC*

Target: T1, HCV NS3 helicase NS3h_1b(con1) (Hepatitis C virus genotype 1b, UniProt Q9WMX2)
T1 construct: truncated C-terminally His-tagged NS3 proteins lacking the N-terminal protease, called NS3h; His-tag (C); made in house
Test: MBHA screen of NCI mechanistic set library at 20 μM (percent inhibition, compound interference)
Assay type: biochemical
Settings: compounds at 20 μM; for Inh. (%) (Inhibition): calculated from Equation 1
Procedure, shortened: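 Molecular beacon-based DNA unwinding assay; compounds screened at 20 μM in triplicate, with DMSO-only negative and 500 nM dT20 positive controls. Fluorescence (ex 643/em 670 nm) was read before and 30 min after adding ATP to 1 mM. Percent inhibition came from the change relative to DMSO controls; interference from pre-ATP fluorescence versus DMSO controls.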

[1] = MBHA with DNA substrate, assay interference calculated with Equation 2
[2] = assay interference calculated with Equation 2 (fluorescence vs DMSO-only controls before ATP)

T1 sequence (Q9WMX2 1192-1657): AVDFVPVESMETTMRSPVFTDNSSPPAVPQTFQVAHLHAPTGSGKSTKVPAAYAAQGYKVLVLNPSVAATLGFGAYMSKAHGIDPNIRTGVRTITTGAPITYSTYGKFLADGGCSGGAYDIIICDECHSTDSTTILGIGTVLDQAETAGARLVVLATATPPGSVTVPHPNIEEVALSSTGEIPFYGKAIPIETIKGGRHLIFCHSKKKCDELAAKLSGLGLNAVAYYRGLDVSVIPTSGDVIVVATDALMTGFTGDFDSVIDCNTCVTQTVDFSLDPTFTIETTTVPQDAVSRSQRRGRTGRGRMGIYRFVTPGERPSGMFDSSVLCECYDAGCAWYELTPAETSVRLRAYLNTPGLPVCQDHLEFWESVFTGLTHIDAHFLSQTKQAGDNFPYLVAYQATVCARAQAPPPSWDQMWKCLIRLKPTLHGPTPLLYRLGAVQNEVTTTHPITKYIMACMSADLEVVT

Row | Structure (SMILES) | Int.* (Ratio) (Interference) [1] | Inh. (%) (Inhibition) (MBHA with DNA substrate) | Inh. (%) (Inhibition) (MBHA with a DNA substrate) | Int.* (Ratio) (Interference) [2]
1 | COc1cc2cc(c1Cl)N(C)C(=O)C[C@H](OC(=O)[C@H](C)N(C)C(C)=O)[C@]1(C)O[C@H]1[C@H](C)[C@@H]1C[C@@](O)(NC(=O)O1)[C@H](OC)/C=C/C=C(\C)C2 [Compound 153858] | 0.95 Ratio | 0.3% | – | –
2 | COC(=O)Nc1nc2ccc(Br)cc2[nH]1 [Compound 154754] | – | – | 7.6% | 0.91 Ratio
3 | COc1cc2cc3c4cc(OC)c(OC)cc4cc[n+]3c(C)c2cc1OC.O=C(O)CS(=O)(=O)[O-] [Compound 154890] | 0.29 Ratio | 79.4% | – | –
4 | N#CC1CC(c2ccccc2)Nc2cc(Cl)ccc2N1 (stereo not drawn) [Compound 155595] | 1.17 Ratio | 2.3% | – | –
5 | COC(=O)[C@@H]1[C@H](O)[C@H](C)[C@H](O)[C@H](C)/C=C\C=C(/C)C(=O)Nc2c(C)c(OC(C)=O)c3c(c2O)C(=O)C(C)=C2OCOC(=C23)/C(C)=C/[C@@](C)(O)[C@H](O)[C@@H](C)[C@H]1OC(C)=O [Compound 156215] | – | – | −23.4% | 1.02 Ratio
6 | CC(=O)OCc1cc(=O)n(C)c2c3c4c(cc12)c(C)cc(=O)n4CO3 [Compound 157004] | – | – | 7.1% | 1.11 Ratio
7 | CCN(CC)CCCC(C)Nc1ccnc(/C=C/c2ccc(Cl)cc2)c1 (stereo not drawn) [Compound 157389] | – | – | 10.6% | 0.88 Ratio
8 | Cc1ccc([S+](c2ccc(C)cc2)c2ccc(C)cc2)cc1 [Compound 157930] | – | – | 7.6% | 0.86 Ratio
9 | CCOC(=O)/C=C/c1c(C)[nH]c(=O)[nH]c1=O [Compound 159935] | 0.89 Ratio | −0.8% | – | –
10 | COc1ccc2cc3[n+](cc2c1OC)CCc1cc2c(cc1-3)OCO2.[Cl-] [Compound 163088] | 0.87 Ratio | 13.3% | – | –
11 | Cc1c2cnccc2c(C)c2c1c1ccccc1n2CCOC(=O)c1ccccc1 [Compound 163443] | 0.88 Ratio | −7.6% | – | –
12 | N[C@H](C(=O)O)[C@@H]1CC(Cl)=NO1 [Compound 163501] | – | – | 10.3% | 0.91 Ratio
13 | CC(=O)[O][Sn]([CH2]c1ccccc1)([CH2]c1ccccc1)[CH2]c1ccccc1 [Compound 164909] | – | – | −20.2% | 1.04 Ratio
14 | CCC[CH2][Sn]([CH2]CCC)([CH2]CCC)[O]c1cc(Cl)c(Cl)cc1Cl [Compound 164914] | – | – | 11.5% | 0.91 Ratio
15 | COC(=O)[C@@]12OC[C@]34[C@H]([C@@H](O)[C@@H]1O)[C@@]1(C)CC(=O)C(O)=C(C)[C@@H]1C[C@H]3OC(=O)[C@H](OC(=O)/C=C(\C)C(C)C)[C@@H]24 [Compound 165563] | 0.95 Ratio | 14.6% | – | –
16 | CCSC(=O)N1c2ccc(OC)cc2C=CC1C#N (stereo not drawn) [Compound 165897] | 1.20 Ratio | −14.2% | – | –
17 | CN1CCN(CCNc2ccc(CO)c3sc4ccccc4c(=O)c23)CC1 [Compound 166381] | – | – | 7.6% | 0.82 Ratio
18 | Cc1cc(N)c2ccccc2[n+]1CCCCCCCCCC[n+]1c(C)cc(N)c2ccccc21.[Cl-].[Cl-] [Compound 166454] | 0.18 Ratio | 60.4% | – | –
19 | CSc1ccc(NC(=O)CCl)cc1 [Compound 166464] | 1.00 Ratio | 3.7% | – | –
20 | CC1C(Oc2c(-c3ccc(O)c(O)c3)oc3c(O)cc(O)cc3c2=O)OC(O)C(O)C1O (stereo not drawn) [Compound 167410] | 0.87 Ratio | −13.8% | – | –
21 | CCOC(=O)[C@H](CC(C)C)NC(=O)C(Cc1ccc(N(CCCl)CCCl)cc1)NC(C)=O (stereo partly drawn) [Compound 167780] | 1.00 Ratio | 22.8% | – | –
22 | CC(=O)OCCN1c2ccccc2Sc2cnccc21 [Compound 168221] | 0.96 Ratio | −12.6% | – | –
23 | Cc1cc2nc(C=C(C(F)(F)F)C(F)(F)F)oc2cc1C [Compound 168415] | 0.95 Ratio | 13.3% | – | –
24 | CCC[CH2][Pb]([Cl])([CH2]CCC)[CH2]CCC [Compound 168597] | 0.98 Ratio | 2.6% | – | –
25 | CNC(=S)N/N=C/c1ccc([N+](=O)[O-])s1 [Compound 169543] | – | – | 9.6% | 1.02 Ratio
26 | COC(=O)C1(C)CCCC2(C)c3cc(OC)ccc3C(=O)C(Br)C12 (stereo not drawn) [Compound 169600] | 0.90 Ratio | 0.0% | – | –

Row | Structure (SMILES) | Int.* (Ratio) (Interference) [1] | Inh. (%) (Inhibition) (MBHA with DNA substrate) | Inh. (%) (Inhibition) (MBHA with a DNA substrate) | Int.* (Ratio) (Interference) [2]
27 | OCCNCCN1CCN(CCCN2c3ccccc3Sc3ccc(C(F)(F)F)cc32)CC1 [Compound 169676] | 0.87 Ratio | 18.3% | – | –
28 | CC(C)C[C@H]1C(=O)N2CCC[C@H]2[C@]2(O)O[C@](NC(=O)[C@@H]3C=C4c5cccc6[nH]c(Br)c(c56)C[C@H]4N(C)C3)(C(C)C)C(=O)N12.CS(=O)(=O)O [Compound 169774] | 0.92 Ratio | −15.6% | – | –
29 | C[C@H](CN1CC(=O)NC(=O)C1)N1CC(=O)NC(=O)C1 [Compound 169779] | 1.12 Ratio | −9.4% | – | –
30 | O=c1[nH]c2ccccc2n1C1CCN(CCCC(c2ccc(F)cc2)c2ccc(F)cc2)CC1 [Compound 170984] | 0.95 Ratio | 4.7% | – | –
31 | COC(=O)[C@@]12OC[C@]34[C@H]([C@@H](O)[C@@H]1O)[C@@]1(C)CC(=O)C(O)=C(C)[C@@H]1C[C@H]3OC(=O)[C@H](OC(=O)C=C(C)C)[C@@H]24 [Compound 172924] | 1.01 Ratio | 13.3% | – | –
32 | CC(=O)[O][Pb]([O]C(C)=O)([c]1ccccc1)[c]1ccccc1 [Compound 173046] | 0.93 Ratio | −12.2% | – | –
33 | CC(C)CC(NC(=O)OCc1ccccc1)C(=O)NC(Cc1ccccc1)C(=O)CCl (stereo not drawn) [Compound 173904] (Cbz-Leu-Phe-CH2Cl; configuration not given here) | 1.09 Ratio | 1.4% | – | –
34 | CC(=O)NC(CC(C)C)C(=O)NC(Cc1ccccc1)C(=O)CCl (stereo not drawn) [Compound 173905] (Ac-Leu-Phe-CH2Cl; configuration not given here) | 1.11 Ratio | −12.0% | – | –
35 | CN(Cc1cnc2nc(N)nc(N)c2n1)c1ccc(C(=O)NC(CCC(=O)O)C(=O)O)c2ccccc12 (stereo not drawn) [Compound 174121] | 0.91 Ratio | −13.1% | – | –
36 | [Cl][Hg][c]1ccc2ccccc2c1 [Compound 174163] | 1.00 Ratio | −18.5% | – | –
37 | CC(=O)[O][Hg][c]1c(C)c(C)c(C)c(C)c1C [Compound 174176] | 1.04 Ratio | 6.0% | – | –
38 | CCCC(=O)[O-].[Na+] [Compound 174280] | 0.90 Ratio | 1.1% | – | –
39 | N=N/C(=C\c1c(O)[nH]c2ccccc12)c1ccccc1 [Compound 175274] | – | – | 7.0% | 1.09 Ratio
40 | COc1ccc(C=CC(=O)Oc2cc(O)cc(O)c2)cc1 [Compound 175296] | 0.90 Ratio | 4.7% | – | –
41 | Cc1ccc(C2NC(=O)c3ccccc3N2)s1 (stereo not drawn) [Compound 175634] | 0.93 Ratio | 1.5% | – | –
42 | O=C1NC(c2cccc3ccccc23)Nc2ccc(Cl)cc21 (stereo not drawn) [Compound 175636] | – | – | −5.0% | 0.96 Ratio
43 | N[C@H](C(=O)O)[C@H]1ON=C(Cl)[C@H]1O [Compound 176324] | – | – | −6.8% | 1.02 Ratio
44 | C(=C/c1nc2ccccc2o1)/c1ccc2c(c1)OCO2 [Compound 176655] | 1.08 Ratio | 0.3% | – | –
45 | NC(N)=NCCCS(=O)(=O)Nc1ccc(Nc2c3ccccc3nc3cc([N+](=O)[O-])ccc23)cc1 [Compound 177365] | – | – | 9.2% | 0.49 Ratio
46 | COc1ccc(O)c2c(=O)c3c(OC)cc4c(c3oc12)[C@@H]1C=CO[C@@H]1O4 [Compound 178249] | 0.87 Ratio | 2.4% | – | –
47 | CC/C(=C(\c1ccccc1)c1ccc(OCCN(C)C)cc1)c1ccccc1.O=C(O)CC(O)(CC(=O)O)C(=O)O [Compound 180973] | 0.90 Ratio | 13.5% | – | –
48 | COc1ccc2cc1Oc1ccc(cc1)CC1c3c(cc(OC)c4c3Oc3cc5c(cc3O4)CCNC5C2)CCN1C (stereo not drawn) [Compound 181486] | 0.50 Ratio | 38.3% | – | –
49 | CCOC(=O)NC1=C(N2CC2)C(=O)C(NC(=O)OCC)=C(N2CC2)C1=O [Compound 182986] | 1.18 Ratio | −16.6% | – | –
50 | CCC[CH2][Sn]1([CH2]CCC)[S]CC[N]1S(=O)(=O)c1ccc(C)cc1 [Compound 183359] | 0.83 Ratio | 13.3% | – | –
51 | C[C@H]1O[C@@H](c2ccc3c(c2O)C(=O)C2=C(C3=O)[C@@]3(O)C(=O)C[C@](C)(O)C[C@@]3(O)C=C2)C[C@@H](O)[C@@H]1O [Compound 184398] | – | – | −39.0% | 1.09 Ratio
